{
  "source": "patent US12378234B2",
  "about": "“Crystalline polymorphs of a 1-thiazol-2-yl-pyrazole-5-carboxylic acid derivative” (Bantam Pharmaceutical, LLC, priority 2019, dated 2025)",
  "assay_type_in_all_cases": "physicochemical",
  "key": {"[1]": {"test": "Physical and chemical stability under stressed conditions (HPLC, XRPD)", "details": "40° C./75% RH for 1 week", "procedure": "Physical and chemical stability evaluation has been performed for crystalline polymorph Form 1 under stressed conditions. In the experiments, about 10 mg of the polymorph was placed into 4 ml glass vials that were stored under 40° C./75% RH for 1 week. HPLC was utilized to evaluate the degradation, and XPRD was used to evaluate the crystalline polymorph."}, "[2]": {"test": "Slurry conversion (competitive) experiments for thermodynamic stability relationship", "details": "slurry of Form 1:Form 5 (1:1) in H2O:acetone (9:1) or H2O:ethanol (3:1), room temperature, 2 or 3 days", "procedure": "To determine the thermodynamic stability relationship between Form 1 and Form 5, slurry conversion experiments were conducted. Specifically, Form 1 sample was added to 1.0 mL H2O:acetone (9:1 v:v) or 0.8 mL of H2O:ethanol (3:1 v:v) at room temperature. After equilibrium for 1 hr, the suspensions were filtered to obtain a saturated solution Form 1. To each saturated solution of Form 1:Form 5 (1:1) was added. After stirring at room temperature for 2 or 3 days, the solids were isolated for XRPD analysis.\nTo determine the thermodynamic stability relationship between Form 11 and Form 12, slurry conversion experiments were conducted. Specifically, Form 12 (2.5 mg) was added to 1.0 mL of 4% dichloromethane at room temperature. After equilibrium for 1 hour, the suspensions were filtered to obtain a saturated solution Form 12. To the saturated solution of Form 11:Form 12 (1:1) was added. After stirring at room temperature for 30 minutes, the solids were isolated for XRPD analysis. […] The pH of Form 11 solution (2.5 mg in 1 mL of 4% dichloromethane) and Form 12 solution (2.5 mg in 1 mL of 4% dichloromethane) was measured to be 8.25 and 7.98, respectively."}, "[3]": {"test": "Solubility of crystalline polymorph in biologically relevant media (water, SGF, FaSSIF, FeSSIF), HPLC of supernatant, pH, XRPD of remaining solids", "details": "for solubility at 1 h / solubility at 4 h / solubility at 24 h: thermodynamic from solid, 37° C.; for pH: solubility test", "procedure": "The solubility of crystalline polymorph Form 1 was tested in biologically relevant media: water, simulated gastric fluid (SGF), fasted state simulated intestinal fluid (FaSSIF) and fed state simulated intestinal fluid (FeSSIF). For example, the crystalline polymorph was suspended in the solvent with stirring at 400 rpm at 37° C. for 1 h, 4 h and 24 h followed by filtration. The supernatant concentration was measured by HPLC (Mobile phase A: 0.1% NH3 in H2O, Mobile phase B: acetonitrile; flow rate: 0.8 mL/min; injection volume: 5 μL). The remaining solids were tested by XRPD.\nThe solubility of crystalline polymorph Form 11 was tested in biologically relevant media: water, SGF, FaSSIF, and FeSSIF. For example, the crystalline polymorph was suspended in the solvent with stirring at 400 rpm at 37° C. for 1 h, 4 h and 24 h followed by filtration. The supernatant was measured by HPLC for concentration and the remaining solids were tested by XRPD."}, "[4]": {"test": "Dynamic vapor sorption (DVS)", "procedure": "TGA and DSC measurements indicated weight loss of 0.1% at 150° C. and an endothermic peak at 120.0° C.\nDynamic Vapor Sorption (DVS) was measured with a SMS DVS Intrinsic from Surface Measurement Systems (London, United Kingdom) using the following parameters: temperature: 25° C.; sample size: 10-20 mg; gas and flow rate: N2 and 200 mL/min; dm/dt: 0.002%/min; min. dm/dt stability duration: 10 min; max. equilibrium time: 180 min; relative humidity (RH) range: 0% RH-95% RH-0% RH; RH step size: 10%."}},
  "data": [
    {"smiles": "Cc1nn(-c2nc(C3=CCC(C(F)(F)F)CC3)c(SC(C)C)s2)c(C(=O)O)c1-c1cccc(F)c1", "note": "(stereo not drawn) [Form 1, 4-(3-fluorophenyl)-1-(5-(isopropylthio)-4-(4-(trifluoromethyl)cyclohex-1-en-1-yl)thiazol-2-yl)-3-methyl-1H-pyrazole-5-carboxylic acid]", "values": [
      {"measurement": "physical and chemical stability", "setting": "[1]", "result": "physically stable"},
      {"measurement": "thermodynamic stability relationship between Form 1 and Form 5", "setting": "[2]", "result": "more thermodynamically stable than Form 5"},
      {"measurement": "Form change by XRPD of remaining solids", "setting": "[3]; after solubility test in FaSSIF", "result": "one unknown peak was observed at about 31 2θ degrees"},
      {"measurement": "Form change by XRPD of remaining solids", "setting": "[3]; after solubility test in FeSSIF", "result": "no form change was observed"},
      {"measurement": "Form change by XRPD of remaining solids", "setting": "[3]; after solubility test in SGF", "result": "no form change was observed"},
      {"measurement": "Form change by XRPD of remaining solids", "setting": "[3]; after solubility test in water", "result": "no form change was observed"},
      {"measurement": "solubility at 1 h", "setting": "[3]; fasted state simulated intestinal fluid (FaSSIF), FaSSIF, 1 hr", "result": 140, "unit": "µg/mL"},
      {"measurement": "solubility at 4 h", "setting": "[3]; fasted state simulated intestinal fluid (FaSSIF), FaSSIF, 4 hr", "result": 220, "unit": "µg/mL"},
      {"measurement": "solubility at 24 h", "setting": "[3]; fasted state simulated intestinal fluid (FaSSIF), FaSSIF, 24 hr", "result": 200, "unit": "µg/mL"},
      {"measurement": "solubility at 1 h", "setting": "[3]; fed state simulated intestinal fluid (FeSSIF), FeSSIF, 1 hr", "result": 170, "unit": "µg/mL"},
      {"measurement": "solubility at 4 h", "setting": "[3]; fed state simulated intestinal fluid (FeSSIF), FeSSIF, 4 hr", "result": 180, "unit": "µg/mL"},
      {"measurement": "solubility at 24 h", "setting": "[3]; fed state simulated intestinal fluid (FeSSIF), FeSSIF, 24 hr", "result": 140, "unit": "µg/mL"},
      {"measurement": "solubility at 1 h", "setting": "[3]; simulated gastric fluid (SGF), simulated gastric fluid, SGF, 1 hr", "result": 50, "unit": "µg/mL"},
      {"measurement": "solubility at 4 h", "setting": "[3]; simulated gastric fluid (SGF), simulated gastric fluid, SGF, 4 hr", "result": 30, "unit": "µg/mL"},
      {"measurement": "solubility at 24 h", "setting": "[3]; simulated gastric fluid (SGF), simulated gastric fluid, SGF, 24 hr", "result": 30, "unit": "µg/mL"},
      {"measurement": "pH", "setting": "[3]; FaSSIF, 1 hr", "result": 6.55},
      {"measurement": "pH", "setting": "[3]; FaSSIF, 4 hr", "result": 5.75},
      {"measurement": "pH", "setting": "[3]; FaSSIF, 24 hr", "result": 5.12},
      {"measurement": "pH", "setting": "[3]; FeSSIF, 1 hr", "result": 5.07},
      {"measurement": "pH", "setting": "[3]; FeSSIF, 4 hr", "result": 5.06},
      {"measurement": "pH", "setting": "[3]; FeSSIF, 24 hr", "result": 4.94},
      {"measurement": "pH", "setting": "[3]; H2O, 1 hr", "result": 7.00},
      {"measurement": "pH", "setting": "[3]; H2O, 4 hr", "result": 7.82},
      {"measurement": "pH", "setting": "[3]; H2O, 24 hr", "result": 6.68},
      {"measurement": "pH", "setting": "[3]; SGF, 1 hr", "result": 1.93},
      {"measurement": "pH", "setting": "[3]; SGF, 4 hr", "result": 1.75},
      {"measurement": "pH", "setting": "[3]; SGF, 24 hr", "result": 1.83},
      {"measurement": "solubility at 1 h", "setting": "[3]; water, H2O, 1 hr", "result": 490, "unit": "µg/mL"},
      {"measurement": "solubility at 4 h", "setting": "[3]; water, H2O, 4 hr", "result": 1300, "unit": "µg/mL"},
      {"measurement": "solubility at 24 h", "setting": "[3]; water, H2O, 24 hr", "result": 1700, "unit": "µg/mL"},
      {"measurement": "water uptake (DVS)", "setting": "[4]; 25° C./80% relative humidity", "result": 0.6, "unit": "%"},
      {"measurement": "form change before and after DVS", "setting": "[4]; XRPD, FIG. 1E", "result": "no form change was observed"},
      {"measurement": "hygroscopicity", "setting": "[4]; from DVS at 25° C./80% relative humidity", "result": "slightly hygroscopic"}
    ]}
  ]
}
